{"source": "patent US11780823B2", "about": "“Indazole-3-carboxamides and their use as Wnt/β-catenin signaling pathway inhibitors” (BioSplice Therapeutics, Inc., priority 2011, dated 2023)", "data": [{"system": "Wnt activity (wnt-responsive SP5 promoter luciferase reporter in SW480 cells)", "assay": "Wnt reporter screening assay: SP5 promoter-driven firefly luciferase in SW480 cells", "format": "cell-based", "details": "Homo sapiens; SW480 colon cancer cells with SP5 promoter luciferase reporter; half-log dilutions, ten micromolar top concentration; read 24-40 h after compound addition; normalized to DMSO; read-out: Wnt inhibition", "source_text": "Another screening assay for Wnt activity is described as follows. Reporter cell lines can be generated by stably transducing cells of cancer cell lines (e.g., colon cancer) with a lentiviral construct that include a wnt-responsive promoter driving expression of the firefly luciferase gene.\nLentiviral constructs can be made in which the SP5 promoter, a promoter having eight TCF/LEF binding sites derived from the SP5 promoter, is linked upstream of the firefly luciferase gene. The lentiviral constructs can also include a hygromycin resistance gene as a selectable marker. The SP5 promoter construct can be used to transduce SW480 cells, a colon cancer cell line having a mutated APC gene that generates a truncated APC protein, leading to de-regulated accumulation of β-catenin.\nCultured SW480 cells bearing a reporter construct can be distributed at approximately 10,000 cells per well into 96 well or 384 well plates. Compounds from a small molecule compound library can then be added to the wells in half-log dilutions using a ten micromolar top concentration. A series of control wells for each cell type receive only buffer and compound solvent. Twenty-four to forty hours after the addition of compound, reporter activity for luciferase can be assayed, for example, by addition of the BrightGlo luminescence reagent (Promega) and the Victor3 plate reader (Perkin Elmer). Readings can be normalized to DMSO only treated cells, and normalized activities can then be used in the IC50 calculations.", "units": {"IC50": "µM"}, "values": [{"smiles": "CN1CCC(NC(=O)c2n[nH]c3ccc(-c4cncc(CN5CCCCC5)c4)cc23)CC1", "note": "[Compound 87, N-(1-Methylpiperidin-4-yl)-5-(5-(piperidin-1-ylmethyl)pyridin-3-yl)-1H-indazole-3-carboxamide]", "IC50": 2.44}, {"smiles": "CN(C)Cc1cncc(NC(=O)c2n[nH]c3ccc(-c4cncc(CN5CCCC5)c4)cc23)c1", "note": "[Compound 106, N-(5-((Dimethylamino)methyl)pyridin-3-yl)-5-(5-(pyrrolidin-1-ylmethyl)pyridin-3-yl)-1H-indazole-3-carboxamide]", "IC50": 0.033}, {"smiles": "CN1CCN(Cc2cncc(NC(=O)c3n[nH]c4ccc(-c5cncc(CN6CCCCC6)c5)cc34)c2)CC1", "note": "[Compound 124, N-(5-((4-Methylpiperazin-1-yl)methyl)pyridin-3-yl)-5-(5-(piperidin-1-ylmethyl)pyridin-3-yl)-1H-indazole-3-carboxamide]", "IC50": 0.067}, {"smiles": "O=C(Nc1ccc(N2CCCCC2)nc1)c1n[nH]c2ccc(-c3cncc(CN4CCCCC4)c3)cc12", "note": "[Compound 126, N-(6-(Piperidin-1-yl)pyridin-3-yl)-5-(5-(piperidin-1-ylmethyl)pyridin-3-yl)-1H-indazole-3-carboxamide]", "IC50": 0.022}, {"smiles": "O=C(Nc1cccc(F)c1)c1n[nH]c2ccc(-c3cncc(CN4CCCCC4)c3)cc12", "note": "[Compound 162, N-(3-Fluorophenyl)-5-(5-(piperidin-1-ylmethyl)pyridin-3-yl)-1H-indazole-3-carboxamide]", "IC50": 0.426}, {"smiles": "O=C(NC1CCOCC1)c1n[nH]c2ccc(-c3cncc(CN4CCCCC4)c3)cc12", "note": "[Compound 163, 5-(5-(Piperidin-1-ylmethyl)pyridin-3-yl)-N-(tetrahydro-2H-pyran-4-yl)-1H-indazole-3-carboxamide]", "IC50": 15.4}, {"smiles": "O=C(Nc1cncc(F)c1)c1n[nH]c2ccc(-c3cncc(CN4CCCCC4)c3)cc12", "note": "[Compound 168, N-(5-Fluoropyridin-3-yl)-5-(5-(piperidin-1-ylmethyl)pyridin-3-yl)-1H-indazole-3-carboxamide]", "IC50": 0.066}, {"smiles": "O=C(Nc1ccc(N2CCC(O)CC2)nc1)c1n[nH]c2ccc(-c3cncc(CN4CCCCC4)c3)cc12", "note": "[Compound 169, N-(6-(4-Hydroxypiperidin-1-yl)pyridin-3-yl)-5-(5-(piperidin-1-ylmethyl)pyridin-3-yl)-1H-indazole-3-carboxamide]", "IC50": 0.049}, {"smiles": "O=C(Nc1ccc(N2CCCC2)nc1)c1n[nH]c2ccc(-c3cncc(CN4CCC(O)CC4)c3)cc12", "note": "[Compound 170, 5-(5-((4-Hydroxypiperidin-1-yl)methyl)pyridin-3-yl)-N-(6-(pyrrolidin-1-yl)pyridin-3-yl)-1H-indazole-3-carboxamide]", "IC50": 0.043}, {"smiles": "Cc1cc(NC(=O)c2n[nH]c3ccc(-c4cncc(CN5CCCCC5)c4)cc23)cnc1N1CCCC1", "note": "[Compound 172, N-(5-Methyl-6-(pyrrolidin-1-yl)pyridin-3-yl)-5-(5-(piperidin-1-ylmethyl)pyridin-3-yl)-1H-indazole-3-carboxamide]", "IC50": 0.06}, {"smiles": "Cc1cc(NC(=O)c2n[nH]c3ccc(-c4cncc(CN5CCCCC5)c4)cc23)cnc1N1CCC1", "note": "[Compound 173, N-(6-(Azetidin-1-yl)-5-methylpyridin-3-yl)-5-(5-(piperidin-1-ylmethyl)pyridin-3-yl)-1H-indazole-3-carboxamide]", "IC50": 0.036}, {"smiles": "O=C(Nc1ccc(N2CCC2)nc1)c1n[nH]c2ccc(-c3cncc(CN4CCCCC4)c3)cc12", "note": "[Compound 174, N-(6-(Azetidin-1-yl)pyridin-3-yl)-5-(5-(piperidin-1-ylmethyl)pyridin-3-yl)-1H-indazole-3-carboxamide]", "IC50": 0.048}, {"smiles": "COc1ccc(NC(=O)c2n[nH]c3ccc(-c4cncc(CN5CCCCC5)c4)cc23)cn1", "note": "[Compound 175, N-(6-Methoxypyridin-3-yl)-5-(5-(piperidin-1-ylmethyl)pyridin-3-yl)-1H-indazole-3-carboxamide]", "IC50": 0.025}, {"smiles": "Nc1ncc(NC(=O)c2n[nH]c3ccc(-c4cncc(CN5CCCCC5)c4)cc23)cn1", "note": "[Compound 176, N-(2-Aminopyrimidin-5-yl)-5-(5-(piperidin-1-ylmethyl)pyridin-3-yl)-1H-indazole-3-carboxamide]", "IC50": 0.03}]}]}
